Experimental data: patent US20080166694A1, “Plant tissue packaging process” (priority 2007, published 2008)

Columns and labels:
[1] = system: Cavendish bananas; test: Storage of harvested Cavendish bananas in banavac polyethylene bags in containers with or without ozone; conditions: Container 7: 200 to 300 parts per billion ozone in surrounding atmosphere; polyethylene bags tied closed; regular atmosphere (20.8 percent oxygen); 56 days of storage; versus Container 8 without ozone
Description: Experimental conditions included loading harvested Cavendish bananas in polyethylene bags (known as “banavac” bags) into two containers, both having a regular atmosphere (containing 20.8 percent oxygen), with vents partially opened for the first four weeks and completely closed for the last four weeks of the experimental period. The experimental difference between the containers was the maintenance of 200 to 300 parts per billion of ozone in Container 7, and the absence of ozone from Container 8.
Container 8 in the experiment detailed in FIG. 3 was loaded with bananas in modified atmosphere packaging (here, polyethylene bags tied closed with a knot). The bananas were stored in the container without added ozone. At 56 days after harvest, all of the bananas were spoiled to the point of liquefaction.
Container 7 in the experiment detailed in FIG. 3 was loaded with bananas in modified atmosphere packaging (here also, polyethylene bags tied closed with a knot). According to an embodiment of the present invention, the bags of bananas in Container 7 were exposed to a surrounding atmosphere containing an ozone level of 200 to 300 parts per billion.

[2] = system: bananas; test: Addition of ozone to controlled-atmosphere and regular-atmosphere containers of bananas; conditions: ozone added
Method: In another embodiment, a controlled-atmosphere shipping container is filled with bananas packaged in perforated bags, and ozone is added to the controlled atmosphere. If a non-ozonated controlled-atmosphere container is well sealed, ethylene will accumulate, offsetting the benefit of slowed respiration afforded by the controlled atmosphere.

O=[O+][O-] [ozone]
condition of the bananas after storage [1]: markedly superior condition compared to that of the control bananas | climacteric ripening of bananas [2]: delay climacteric ripening of bananas | overall ethylene levels in containers [2]: reduce overall ethylene levels
